Reference: the NIST ThermoML archive (doi:10.1016/j.jct.2015.08.013)
Numbers after ± are expanded uncertainties.

Assays:
[1] = 100 kPa, Liquid; for viscosity: Capillary tube (Ostwald / Ubbelohde) method; for mass density: Vibrating tube method
[2] = xn = mol fraction of the nth substance listed; conditions: 100 kPa, Liquid, x1 = 1; for mass density: Vibrating tube method; for viscosity: Capillary tube (Ostwald / Ubbelohde) method

| SMILES | viscosity ([1]; 298.15 K) | viscosity ([1]; 303.15 K) | viscosity ([1]; 308.15 K) | viscosity ([1]; 313.15 K) | viscosity ([1]; 318.15 K) | viscosity ([1]; 323.15 K) | mass density ([2]; 293.15 K) | viscosity ([2]; 298.15 K) | mass density ([2]; 298.15 K) | viscosity ([2]; 303.15 K) | mass density ([2]; 303.15 K) | viscosity ([2]; 308.15 K) | mass density ([2]; 308.15 K) | viscosity ([2]; 313.15 K) | mass density ([2]; 313.15 K) | viscosity ([2]; 318.15 K) | mass density ([2]; 318.15 K) | viscosity ([2]; 323.15 K) | mass density ([2]; 323.15 K) | further results |
| --- | --- | --- | --- | --- | --- | --- | --- | --- | --- | --- | --- | --- | --- | --- | --- | --- | --- | --- | --- | --- |
| CC1COC(=O)O1 (stereo not given) [4-methyl-1,3-dioxolan-2-one] | 2.52 ± 0.052 mPa·s | 2.27 ± 0.047 mPa·s | 2.08 ± 0.043 mPa·s | 1.91 ± 0.04 mPa·s | 1.75 ± 0.036 mPa·s | 1.62 ± 0.034 mPa·s |  |  |  |  |  |  |  |  |  |  |  |  |  |  |
| CN1CCCC1=O [N-methylpyrrolidone] | 1.677 ± 0.036 mPa·s | 1.536 ± 0.033 mPa·s | 1.429 ± 0.03 mPa·s | 1.338 ± 0.029 mPa·s | 1.248 ± 0.027 mPa·s | 1.178 ± 0.025 mPa·s |  |  |  |  |  |  |  |  |  |  |  |  |  | mass density ([1]; 293.15 K): 1032.66 ± 1.6 kg/m3; mass density ([1]; 298.15 K): 1028.17 ± 1.6 kg/m3; mass density ([1]; 303.15 K): 1023.6 ± 1.6 kg/m3; mass density ([1]; 308.15 K): 1019.49 ± 1.6 kg/m3; mass density ([1]; 313.15 K): 1014.74 ± 1.6 kg/m3; mass density ([1]; 318.15 K): 1010.2 ± 1.6 kg/m3; mass density ([1]; 323.15 K): 1005.89 ± 1.6 kg/m3 |
| CN1CCCC1=O [N-methylpyrrolidone] + CC1COC(=O)O1 |  |  |  |  |  |  | 1032.66 ± 1.6 kg/m3 | 1.677 ± 0.036 mPa·s | 1028.17 ± 1.6 kg/m3 | 1.536 ± 0.033 mPa·s | 1023.6 ± 1.6 kg/m3 | 1.429 ± 0.03 mPa·s | 1019.49 ± 1.6 kg/m3 | 1.338 ± 0.029 mPa·s | 1014.74 ± 1.6 kg/m3 | 1.248 ± 0.027 mPa·s | 1010.2 ± 1.6 kg/m3 | 1.178 ± 0.025 mPa·s | 1005.89 ± 1.6 kg/m3 |  |
| CN1CCCC1=O [N-methylpyrrolidone] + O=C1CCCO1 |  |  |  |  |  |  | 1032.66 ± 1.6 kg/m3 | 1.677 ± 0.036 mPa·s | 1028.17 ± 1.6 kg/m3 | 1.536 ± 0.033 mPa·s | 1023.6 ± 1.6 kg/m3 | 1.429 ± 0.03 mPa·s | 1019.49 ± 1.6 kg/m3 | 1.338 ± 0.029 mPa·s | 1014.74 ± 1.6 kg/m3 | 1.248 ± 0.027 mPa·s | 1010.2 ± 1.6 kg/m3 | 1.178 ± 0.025 mPa·s | 1005.89 ± 1.6 kg/m3 |  |
